According to patent US12492184B2, “Heteroaryl compounds, preparation methods and uses thereof” (InventisBio Co., Ltd., priority 2020, dated 2025):

system: HEK-Blue IL23 Reporter; experiment: HEK-Blue IL-23 STAT3 Reporter Assay; assay type: cell-based, human; conditions: HEK-Blue IL23 cells stimulated with IL-23 overnight; SEAP read with QUANTI-Blue at OD655
Experimental: HEK-Blue IL23 cells (InvivoGen catalog #HKB-IL23) are designed for the detection of bioactive IL-23 by monitoring the activation of the STAT3 pathway. They were generated by stably introducing the genes for the human IL-23 receptor, STAT3, and the SEAP (secreted embryonic alkaline phosphatase) reporter gene into human HEK293 cell line.
Briefly, around 50,000 cells in DMEM medium supplemented with 10% heat inactivated FBS (˜180 ul) were seeded into each well and incubate for 48 hours at 37° C. with 5% CO2 in air. On day 3, one microliter of compound and 20 ul IL-23 were transferred to the assay plate respectively. The plate was left in the 37° C. incubator overnight. Two microliter of cell supernatant was transferred to a 384-well plate, and 18 ul of resuspended QUANTI-Blue solution was added to each well. SLAP levels were determined using Tecan Spark at OD655.
Cells with no IL23 added were used as Low control. Cells stimulated with IL23 were used as High control. Inhibition rate was calculated with the formula of % inhibition=100*(High control−Treated Well)/(High Control−Low control). IL-23 reporter assay inhibition IC50 was calculated with the equation of Y=Bottom+(Top-Bottom)/(1+10^((Log IC50−X)*HillSlope)).

SMILES | IC50 [nM]
[2H]C([2H])([2H])NC(=O)c1nnc(NC(=O)[C@H]2CC23CC3)cc1Nc1ncccc1S(C)(=O)=NC (single isomer, unassigned) [Compound 97] | 1.4
[2H]C([2H])([2H])NC(=O)c1nnc(NC(=O)C2CC2)cc1Nc1nccc2c1S(C)(=O)=NC2 (stereo not shown) [Compound 56] | 0.3
[2H]C([2H])([2H])NC(=O)c1nnc(NC(=O)[C@H]2CC23CC3)cc1Nc1ncccc1S1(=O)=NCCC1 (stereo partly shown) [Compound 95] | 19.5

same assay, conditions: Homo sapiens, HEK-Blue IL-23, HEK-Blue IL23 cells stimulated with IL-23 overnight; SEAP read with QUANTI-Blue at OD655

SMILES | IC50 [nM]
[2H]C([2H])([2H])NC(=O)c1nnc(NC(=O)[C@H]2CC23CC3)cc1Nc1ncc(OC(F)(F)F)cc1S(C)(=O)=O [Compound 132] | 6.5
[2H]C([2H])([2H])NC(=O)c1nnc(NC(=O)[C@H]2CC23CC3)cc1Nc1ncc(OCC)cc1S(C)(=O)=O [Compound 42] | 0.58
[2H]C([2H])([2H])NC(=O)c1nnc(NC(=O)C2CC2)cc1Nc1ncc(C(C)(C)O)cc1S(C)(=O)=O [Compound 131] | 9
[2H]C([2H])([2H])NC(=O)c1nnc(NC(=O)C2CC2)cc1Nc1ncc(OC[C@H](C)OC(F)F)cc1S(C)(=O)=O [Compound 73] | 1.1
[2H]C([2H])([2H])NC(=O)c1nnc(NC(=O)C23CC(C2)C3)cc1Nc1ncc(OC)cc1S(C)(=O)=O [Compound 16] | 182
[2H]C([2H])([2H])NC(=O)c1nnc(NC(=O)C2CC2)cc1Nc1ncc(OC)cc1S(C)(=O)=O [Compound 14] | 1.3
[2H]C([2H])([2H])NC(=O)c1nnc(NC(=O)[C@@H]2CC23CC3)cc1Nc1ncc(OCCOC=O)cc1S(C)(=O)=O [Compound 117] | 5.7
[2H]C([2H])([2H])NC(=O)c1nnc(NC(=O)C2CC2)cc1Nc1ncc(OC[C@@H](C)OC)cc1S(C)(=O)=O [Compound 68] | 0.6
[2H]C([2H])([2H])NC(=O)c1nnc(NC(=O)[C@H]2CC23CC3)cc1Nc1nc(C)c(OC)cc1S(C)(=O)=O [Compound 100] | 2.1
[2H]C([2H])([2H])NC(=O)c1nnc(NC(=O)C2(C)CC2)cc1Nc1ncc(OC)cc1S(C)(=O)=O [Compound 28] | 35.1
[2H]C([2H])([2H])NC(=O)c1nnc(NC(=O)[C@H]2CC23CC3)cc1Nc1ccc(Cl)cc1S(C)(=O)=O [Compound 9] | 51
[2H]C([2H])([2H])NC(=O)c1nnc(NC(=O)C2CCC2)cc1Nc1ncc(OC)cc1S(C)(=O)=O [Compound 15] | 9.1
[2H]C([2H])([2H])NC(=O)c1nnc(NC(=O)[C@@H]2CC23CC3)cc1Nc1ncc(OCCOC(F)F)cc1S(C)(=O)=O [Compound 116] | 3
[2H]C([2H])([2H])NC(=O)c1nnc(NC(=O)C2CC2)cc1Nc1ncc(C2(F)COC2)cc1S(C)(=O)=O [Compound 62] | 71.9
[2H]C([2H])([2H])NC(=O)c1nnc(NC(=O)C2CC2)cc1Nc1ncc(O[C@@H](C)COC)cc1S(C)(=O)=O [Compound 69] | 0.2
[2H]C([2H])([2H])NC(=O)c1nnc(NC(=O)C2CC2)cc1Nc1ncc(OC(F)F)cc1S(C)(=O)=O (single isomer, unassigned) [Compound 60] | 1.7
[2H]C([2H])([2H])NC(=O)c1nnc(NC(=O)[C@H]2CC23CC3)cc1Nc1ncc(CC)cc1S(C)(=O)=O [Compound 44] | 1
[2H]C([2H])([2H])NC(=O)c1nnc(NC(=O)[C@H]2CC23CC3)cc1Nc1ncc(O[C@@H](C)COC)cc1S(C)(=O)=O [Compound 114] | 1
[2H]C([2H])([2H])CC(=O)c1nnc(NC(=O)[C@H]2CC23CC3)cc1Nc1ncc(OC)cc1S(C)(=O)=O [Compound 104] | 119
[2H]C([2H])([2H])NC(=O)c1nnc(NC(=O)[C@H]2CC23CC3)cc1Nc1ccncc1S(C)(=O)=O [Compound 13] | 346
[2H]C([2H])([2H])NC(=O)c1nnc(NC(=O)[C@H]2C[C@H](NC)C2)cc1Nc1ncc(C2CC2)cc1S(C)(=O)=O [Compound 87] | 19.9
[2H]C([2H])([2H])NC(=O)c1nnc(NC(=O)C2CC2)cc1Nc1ncc(SC(F)(F)F)cc1S(C)(=O)=O (single isomer, unassigned) [Compound 54] | 1.5
